{"source": "ChEMBL document CHEMBL1268847", "about": "“Discovery of orally bioavailable imidazo[1,2-a]pyrazine-based Aurora kinase inhibitors” (Bioorg Med Chem Lett, 2010)", "key": {"[1]": {"target": "T1, Aurora kinase A (Homo sapiens, UniProt O14965)", "T1 sequence (O14965 whole entry)": "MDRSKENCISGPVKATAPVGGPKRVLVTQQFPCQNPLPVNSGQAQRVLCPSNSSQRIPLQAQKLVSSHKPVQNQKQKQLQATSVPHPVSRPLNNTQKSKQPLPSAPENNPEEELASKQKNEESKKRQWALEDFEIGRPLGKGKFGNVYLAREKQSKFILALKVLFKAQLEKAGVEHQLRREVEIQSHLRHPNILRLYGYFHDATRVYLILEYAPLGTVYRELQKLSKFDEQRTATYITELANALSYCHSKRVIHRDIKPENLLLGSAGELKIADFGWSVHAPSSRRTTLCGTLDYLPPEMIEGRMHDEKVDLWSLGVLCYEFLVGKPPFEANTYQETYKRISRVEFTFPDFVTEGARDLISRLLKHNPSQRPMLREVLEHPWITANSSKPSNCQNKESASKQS", "experiment": "Inhibition of Aurora A"}, "[2]": {"target": "Aurora kinase B (Homo sapiens, UniProt Q96GD4)", "sequence (Q96GD4 whole entry)": "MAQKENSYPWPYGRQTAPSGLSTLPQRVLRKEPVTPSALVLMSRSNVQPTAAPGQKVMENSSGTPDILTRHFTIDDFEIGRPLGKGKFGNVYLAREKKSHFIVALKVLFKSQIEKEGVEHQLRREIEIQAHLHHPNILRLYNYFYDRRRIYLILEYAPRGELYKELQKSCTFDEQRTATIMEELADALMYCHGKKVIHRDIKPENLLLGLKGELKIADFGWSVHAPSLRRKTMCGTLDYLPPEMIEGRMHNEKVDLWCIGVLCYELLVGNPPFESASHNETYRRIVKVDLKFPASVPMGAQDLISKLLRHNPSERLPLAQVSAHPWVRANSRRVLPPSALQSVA", "experiment": "Inhibition of Aurora B"}, "[3]": {"experiment": "Inhibition of Aurora kinase assessed as reduction histone H3 Ser10 phosphorylation by cell based assay"}, "[4]": {"target": "T2, Interleukin-1 receptor-associated kinase 4 (Homo sapiens, UniProt Q9NWZ3)", "T2 sequence (Q9NWZ3 whole entry)": "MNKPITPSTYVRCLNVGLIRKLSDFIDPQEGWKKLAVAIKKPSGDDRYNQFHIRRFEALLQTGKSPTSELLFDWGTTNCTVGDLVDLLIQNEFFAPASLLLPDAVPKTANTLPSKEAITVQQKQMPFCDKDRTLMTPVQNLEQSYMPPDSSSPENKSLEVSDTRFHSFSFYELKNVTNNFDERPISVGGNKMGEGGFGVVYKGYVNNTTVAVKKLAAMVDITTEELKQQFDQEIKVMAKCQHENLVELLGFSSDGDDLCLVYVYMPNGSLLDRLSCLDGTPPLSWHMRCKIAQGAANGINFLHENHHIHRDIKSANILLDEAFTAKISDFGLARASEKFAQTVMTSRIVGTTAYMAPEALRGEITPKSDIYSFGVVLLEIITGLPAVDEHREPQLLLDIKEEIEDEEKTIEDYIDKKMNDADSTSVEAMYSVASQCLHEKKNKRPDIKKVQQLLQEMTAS", "experiment": "Inhibition of IRK4"}, "[5]": {"target": "Vascular endothelial growth factor receptor 2 (Homo sapiens, UniProt P35968)", "sequence (P35968 whole entry)": "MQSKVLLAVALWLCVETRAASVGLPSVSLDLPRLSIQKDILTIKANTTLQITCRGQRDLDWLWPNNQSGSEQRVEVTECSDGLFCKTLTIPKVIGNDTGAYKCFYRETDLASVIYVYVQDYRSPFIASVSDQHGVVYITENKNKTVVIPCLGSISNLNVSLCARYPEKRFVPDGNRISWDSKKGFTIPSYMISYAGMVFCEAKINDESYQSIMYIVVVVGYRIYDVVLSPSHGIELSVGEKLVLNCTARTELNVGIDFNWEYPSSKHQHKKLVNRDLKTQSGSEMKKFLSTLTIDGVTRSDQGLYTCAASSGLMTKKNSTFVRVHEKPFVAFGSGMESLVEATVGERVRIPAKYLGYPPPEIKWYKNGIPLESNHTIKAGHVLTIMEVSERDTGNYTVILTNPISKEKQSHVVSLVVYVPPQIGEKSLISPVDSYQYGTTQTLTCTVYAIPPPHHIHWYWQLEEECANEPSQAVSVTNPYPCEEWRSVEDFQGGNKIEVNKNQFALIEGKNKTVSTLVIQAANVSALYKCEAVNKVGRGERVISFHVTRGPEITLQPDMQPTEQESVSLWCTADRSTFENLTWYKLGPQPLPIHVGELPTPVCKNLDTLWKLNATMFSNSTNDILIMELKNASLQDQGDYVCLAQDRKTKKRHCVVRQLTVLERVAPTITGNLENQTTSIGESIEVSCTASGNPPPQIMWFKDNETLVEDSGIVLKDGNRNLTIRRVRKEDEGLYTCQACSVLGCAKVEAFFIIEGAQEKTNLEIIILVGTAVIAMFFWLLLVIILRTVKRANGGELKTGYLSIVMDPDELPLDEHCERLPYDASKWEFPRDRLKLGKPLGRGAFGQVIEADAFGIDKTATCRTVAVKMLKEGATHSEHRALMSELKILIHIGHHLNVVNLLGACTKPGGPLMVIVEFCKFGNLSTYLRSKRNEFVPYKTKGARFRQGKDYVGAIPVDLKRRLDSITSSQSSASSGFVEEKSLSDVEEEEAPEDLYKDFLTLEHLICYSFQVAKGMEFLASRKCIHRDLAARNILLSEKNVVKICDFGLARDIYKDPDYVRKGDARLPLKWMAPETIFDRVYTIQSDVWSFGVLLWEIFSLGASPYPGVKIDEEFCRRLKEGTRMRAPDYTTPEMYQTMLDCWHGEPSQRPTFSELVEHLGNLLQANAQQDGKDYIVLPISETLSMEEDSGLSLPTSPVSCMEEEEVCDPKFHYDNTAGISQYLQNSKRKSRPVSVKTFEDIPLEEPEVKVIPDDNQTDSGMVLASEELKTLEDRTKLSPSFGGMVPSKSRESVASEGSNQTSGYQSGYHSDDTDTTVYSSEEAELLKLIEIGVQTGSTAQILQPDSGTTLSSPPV", "experiment": "Inhibition of VEGFR2"}, "[6]": {"target": "Tyrosine-protein kinase Lck (Homo sapiens, UniProt P06239)", "sequence (P06239 whole entry)": "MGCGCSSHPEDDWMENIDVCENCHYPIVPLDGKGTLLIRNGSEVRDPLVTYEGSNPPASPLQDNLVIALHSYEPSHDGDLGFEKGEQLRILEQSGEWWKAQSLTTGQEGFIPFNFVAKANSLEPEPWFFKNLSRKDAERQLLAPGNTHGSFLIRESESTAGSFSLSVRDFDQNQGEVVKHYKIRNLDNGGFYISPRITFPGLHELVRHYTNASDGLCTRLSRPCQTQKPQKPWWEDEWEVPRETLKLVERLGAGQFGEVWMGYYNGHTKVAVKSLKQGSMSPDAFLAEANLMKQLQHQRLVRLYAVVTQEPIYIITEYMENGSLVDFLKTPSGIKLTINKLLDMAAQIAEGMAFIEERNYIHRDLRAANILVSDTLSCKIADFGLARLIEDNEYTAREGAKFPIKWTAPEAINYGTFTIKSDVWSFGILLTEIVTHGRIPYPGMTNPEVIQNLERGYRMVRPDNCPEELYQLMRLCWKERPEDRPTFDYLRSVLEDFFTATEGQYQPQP", "experiment": "Inhibition of LCK"}, "[7]": {"target": "T3, Serine/threonine-protein kinase Chk1 (Homo sapiens, UniProt O14757)", "T3 sequence (O14757 whole entry)": "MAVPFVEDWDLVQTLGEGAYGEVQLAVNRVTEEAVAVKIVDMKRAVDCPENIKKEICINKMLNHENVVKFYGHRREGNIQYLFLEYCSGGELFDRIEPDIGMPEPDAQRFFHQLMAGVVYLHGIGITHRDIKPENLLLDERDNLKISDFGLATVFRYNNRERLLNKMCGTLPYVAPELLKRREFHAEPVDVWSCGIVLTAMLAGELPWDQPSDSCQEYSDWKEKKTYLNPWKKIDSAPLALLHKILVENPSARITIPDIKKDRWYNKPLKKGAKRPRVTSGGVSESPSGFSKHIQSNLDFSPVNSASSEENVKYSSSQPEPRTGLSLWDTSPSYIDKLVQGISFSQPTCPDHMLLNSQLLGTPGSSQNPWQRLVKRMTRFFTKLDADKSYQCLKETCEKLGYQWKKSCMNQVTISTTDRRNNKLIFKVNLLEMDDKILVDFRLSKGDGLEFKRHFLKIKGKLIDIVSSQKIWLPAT", "experiment": "Inhibition of CHK1"}, "[8]": {"target": "Ribosomal protein S6 kinase alpha-3 (Homo sapiens, UniProt P51812)", "sequence (P51812 whole entry)": "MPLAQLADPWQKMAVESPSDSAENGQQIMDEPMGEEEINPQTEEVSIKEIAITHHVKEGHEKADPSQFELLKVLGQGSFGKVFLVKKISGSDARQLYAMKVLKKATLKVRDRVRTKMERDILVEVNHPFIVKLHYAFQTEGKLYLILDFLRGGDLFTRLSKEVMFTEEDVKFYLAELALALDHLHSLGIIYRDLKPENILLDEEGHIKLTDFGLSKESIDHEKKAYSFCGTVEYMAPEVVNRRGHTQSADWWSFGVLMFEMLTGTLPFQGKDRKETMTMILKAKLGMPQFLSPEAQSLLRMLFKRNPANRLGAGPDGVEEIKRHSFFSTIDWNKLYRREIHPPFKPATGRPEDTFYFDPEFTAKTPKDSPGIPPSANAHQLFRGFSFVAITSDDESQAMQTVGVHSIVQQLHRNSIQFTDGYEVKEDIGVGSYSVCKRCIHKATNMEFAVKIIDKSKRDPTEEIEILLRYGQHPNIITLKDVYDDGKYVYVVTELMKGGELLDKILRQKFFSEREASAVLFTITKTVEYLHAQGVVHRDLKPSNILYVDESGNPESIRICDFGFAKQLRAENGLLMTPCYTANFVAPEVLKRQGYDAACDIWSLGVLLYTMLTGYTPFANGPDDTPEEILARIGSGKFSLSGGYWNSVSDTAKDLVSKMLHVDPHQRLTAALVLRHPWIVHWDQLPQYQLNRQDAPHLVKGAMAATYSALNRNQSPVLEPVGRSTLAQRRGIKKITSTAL", "experiment": "Inhibition of RSK2"}, "[9]": {"experiment": "AUC (0-6 hrs) in rat at 10 mg/kg, po", "format": "ADME, organism-based", "parameters": "time < 6 hr, dose 10 mg/kg, route oral", "conditions": "plasma"}}}
{"smiles": "Cc1cn2c(-c3cn[nH]c3)cnc2c(Nc2cc(CN3CCN(C)C(=O)C3)ns2)n1", "values": [{"measurement": "IC50", "setting": "[1]", "value": "≤ 4", "unit": "nM"}, {"measurement": "IC50", "setting": "[2]", "value": "≤ 13", "unit": "nM"}, {"measurement": "EC50", "setting": "[3]", "value": "> 1000", "unit": "nM"}]}
{"smiles": "CCN(Cc1cc(Nc2nc(C)cn3c(-c4cn[nH]c4)cnc23)sn1)C(C)(C)CO", "values": [{"measurement": "IC50", "setting": "[4]", "value": 8, "unit": "nM"}, {"measurement": "IC50", "setting": "[5]", "value": "≤ 1", "unit": "nM"}, {"measurement": "IC50", "setting": "[1]", "value": "≤ 4", "unit": "nM"}, {"measurement": "IC50", "setting": "[2]", "value": "≤ 13", "unit": "nM"}, {"measurement": "EC50", "setting": "[3]", "value": 24, "unit": "nM"}, {"measurement": "IC50", "setting": "[6]", "value": "≤ 1", "unit": "nM"}, {"measurement": "IC50", "setting": "[7]", "value": 13, "unit": "nM"}, {"measurement": "IC50", "setting": "[8]", "value": 180, "unit": "nM"}]}
{"smiles": "Cc1cn2c(-c3cn[nH]c3)cnc2c(Nc2cc(CN3CCN(CCO)CC3)ns2)n1", "values": [{"measurement": "IC50", "setting": "[1]", "value": "≤ 4", "unit": "nM"}, {"measurement": "IC50", "setting": "[2]", "value": "≤ 13", "unit": "nM"}, {"measurement": "EC50", "setting": "[3]", "value": "> 1000", "unit": "nM"}]}
{"smiles": "Cc1cn2c(-c3cn[nH]c3)cnc2c(Nc2cc(CN3C[C@H]4CC[C@@H](C3)O4)ns2)n1", "values": [{"measurement": "AUC(0-t) at 6 h", "setting": "[9]", "value": 0.4, "unit": "µM·h"}, {"measurement": "IC50", "setting": "[1]", "value": "≤ 4", "unit": "nM"}, {"measurement": "IC50", "setting": "[2]", "value": "≤ 13", "unit": "nM"}, {"measurement": "EC50", "setting": "[3]", "value": 267, "unit": "nM"}]}
{"smiles": "Cc1cn2c(-c3cn[nH]c3)cnc2c(Nc2cc(CN3CCN(C)CC3=O)ns2)n1", "values": [{"measurement": "IC50", "setting": "[1]", "value": "≤ 4", "unit": "nM"}, {"measurement": "IC50", "setting": "[2]", "value": "≤ 13", "unit": "nM"}, {"measurement": "EC50", "setting": "[3]", "value": "> 1000", "unit": "nM"}]}
{"smiles": "CCNC(=O)N1CCN(Cc2cc(Nc3nc(C)cn4c(-c5cn[nH]c5)cnc34)sn2)CC1", "values": [{"measurement": "IC50", "setting": "[1]", "value": "≤ 4", "unit": "nM"}, {"measurement": "IC50", "setting": "[2]", "value": "≤ 13", "unit": "nM"}, {"measurement": "EC50", "setting": "[3]", "value": "> 1000", "unit": "nM"}]}
{"smiles": "Cc1cn2c(-c3cn[nH]c3)cnc2c(Nc2cc(CN3CCOC[C@@H]3CO)ns2)n1", "values": [{"measurement": "IC50", "setting": "[1]", "value": "≤ 4", "unit": "nM"}, {"measurement": "IC50", "setting": "[2]", "value": "≤ 13", "unit": "nM"}, {"measurement": "EC50", "setting": "[3]", "value": "> 1000", "unit": "nM"}]}
{"smiles": "CCOC(=O)N1CCN(Cc2cc(Nc3nc(C)cn4c(-c5cn[nH]c5)cnc34)sn2)CC1", "values": [{"measurement": "AUC(0-t) at 6 h", "setting": "[9]", "value": 0.38, "unit": "µM·h"}, {"measurement": "IC50", "setting": "[1]", "value": "≤ 4", "unit": "nM"}, {"measurement": "IC50", "setting": "[2]", "value": "≤ 13", "unit": "nM"}, {"measurement": "EC50", "setting": "[3]", "value": 561, "unit": "nM"}]}
{"smiles": "CCC(c1cc(Nc2nc(C)cn3c(-c4cn[nH]c4)cnc23)sn1)N1CCOCC1", "note": "(racemic)", "values": [{"measurement": "AUC(0-t) at 6 h", "setting": "[9]", "value": 0.5, "unit": "µM·h"}, {"measurement": "IC50", "setting": "[1]", "value": "≤ 4", "unit": "nM"}, {"measurement": "IC50", "setting": "[2]", "value": "≤ 13", "unit": "nM"}, {"measurement": "EC50", "setting": "[3]", "value": 49, "unit": "nM"}]}
{"smiles": "CCOCC(c1cc(Nc2nc(C)cn3c(-c4cn[nH]c4)cnc23)sn1)N1CCOCC1", "note": "(racemic)", "values": [{"measurement": "IC50", "setting": "[1]", "value": "≤ 4", "unit": "nM"}, {"measurement": "IC50", "setting": "[2]", "value": "≤ 13", "unit": "nM"}, {"measurement": "EC50", "setting": "[3]", "value": 281, "unit": "nM"}]}
{"smiles": "Cc1cn2c(-c3cn[nH]c3)cnc2c(Nc2cc(CN3CCN(S(C)(=O)=O)CC3)ns2)n1", "values": [{"measurement": "IC50", "setting": "[1]", "value": "≤ 4", "unit": "nM"}, {"measurement": "IC50", "setting": "[2]", "value": "≤ 13", "unit": "nM"}, {"measurement": "EC50", "setting": "[3]", "value": "> 500", "unit": "nM"}]}
{"smiles": "Cc1cn2c(-c3cn[nH]c3)cnc2c(Nc2cc(C3(N4C[C@@H](C)O[C@@H](C)C4)CC3)ns2)n1", "values": [{"measurement": "AUC(0-t) at 6 h", "setting": "[9]", "value": 0.3, "unit": "µM·h"}, {"measurement": "IC50", "setting": "[1]", "value": 45, "unit": "nM"}, {"measurement": "IC50", "setting": "[2]", "value": 50, "unit": "nM"}, {"measurement": "EC50", "setting": "[3]", "value": 733, "unit": "nM"}]}
{"smiles": "Cc1cn2c(-c3cn[nH]c3)cnc2c(Nc2cc(C(c3ccccn3)N3CCOCC3)ns2)n1", "note": "(racemic)", "values": [{"measurement": "AUC(0-t) at 6 h", "setting": "[9]", "value": 0.4, "unit": "µM·h"}, {"measurement": "IC50", "setting": "[1]", "value": "≤ 4", "unit": "nM"}, {"measurement": "IC50", "setting": "[2]", "value": "≤ 13", "unit": "nM"}, {"measurement": "EC50", "setting": "[3]", "value": 104, "unit": "nM"}]}
{"smiles": "COCC(c1cc(Nc2nc(C)cn3c(-c4cn[nH]c4)cnc23)sn1)N1CCOCC1", "note": "(racemic)", "values": [{"measurement": "AUC(0-t) at 6 h", "setting": "[9]", "value": 2.3, "unit": "µM·h"}, {"measurement": "IC50", "setting": "[1]", "value": "≤ 4", "unit": "nM"}, {"measurement": "IC50", "setting": "[2]", "value": "≤ 13", "unit": "nM"}, {"measurement": "EC50", "setting": "[3]", "value": 83, "unit": "nM"}]}
{"smiles": "Cc1cn2c(-c3cn[nH]c3)cnc2c(Nc2cc(C(C)N3C[C@@H](C)O[C@@H](C)C3)ns2)n1", "note": "(mixture of isomers)", "values": [{"measurement": "AUC(0-t) at 6 h", "setting": "[9]", "value": 8, "unit": "µM·h"}, {"measurement": "IC50", "setting": "[1]", "value": "≤ 4", "unit": "nM"}, {"measurement": "IC50", "setting": "[2]", "value": "≤ 13", "unit": "nM"}, {"measurement": "EC50", "setting": "[3]", "value": 55, "unit": "nM"}]}
